Laboratory results published in patent US5447911A, “Ghilanten antimetastatic principle from the south american leech, Haementeria ghilianii” (Merrell Dow Pharmaceuticals Inc., priority 1994, dated 1995).

Tested on: B16 melanoma F10 cells
Assay: Metastatic spread of B16-F10 melanoma cells to the lungs of C57/BL mice
Type: in vivo
Method: To confirm the anti-metastatic activity of the proteinaceous substances of this invention, 1×10^5 viable B16 melanoma F10 line cells were injected i.v. through the tail vein of C57/BL mice. The antimetastatic factor was then administered i.v. at -2, +2, +4 and +6 hours relative to the tumor innoculum at t=0 hours. At the end of 15 days, the animals were sacrificed and the number of metastatic foci in the lungs were quantitated. The results observed are summarized in Table 1 below, with n indicating the number of animals used in the test.
B16 melanoma F10 cells (1 × 10^5 cells/animal) were injected i.v.
into the tail vein of C57/Bl mice on day 0. Vehicle: 10 mM Hepes, 0.15M
NaCl, pH 7.4 containing 10 mg/ml BSA; recombinantHirudin (25 antithrombin
units) and FXa inhibitor (1-2 μg) were injected into the mice i.v. at
-2, +2, +4, +6 hrs. after tumor cell innoculation. The animals were
sacrificed at 14 days post tumor cell innoculation. The lungs were
dissected, fixed, and the number of pulmonary metas tases were determined
under a dissecting microscope. […]

[1] = Table 1, recombinant hirudin 25 antithrombin units or FXa inhibitor 1-2 μg i.v. at -2, +2, +4, +6 hrs, versus vehicle control

## Hirudin
Table 1, lungs, recombinant hirudin 25 antithrombin units or FXa inhibitor 1-2 μg i.v. at -2, +2, +4, +6 hrs, 14 days post innoculation
  No. of Metastatic Foci (Mean + S.E.; n = 6): 198 ± 10
[1]
  % Inhibition (metastatic foci): 0%
  % Potentiation (metastatic foci): 21%
Administered -2, +2, +4 and +6 hours relative to tumor cell innoculation
  Effect on metastasis (in words): caused a moderate increase in metastatic foci
